Source: patent publication US20250179094A1, “TGF-B INHIBITOR COMPOUND AND USE THEREOF” (Medinno Pharmaceutical Technology (Zhuhai) Co., Ltd., priority 2022, published 2025)

The compounds below were run against human TGFβR1 (Homo sapiens (Human), UniProt P36897) (assay: TGFβR1 kinase activity assay (ADP-Glo method)). Conditions: ATP 5 uM, TGFβR1tide substrate, 60 minutes at room temperature.
Type: biochemical
Procedure: The principle of the activity assay was that TGFβR1 phosphorylates the substrate TGFβR1tide, consuming ATP in the process. […] The specific experimental steps were as follows. Compounds were diluted 4-fold in DMSO in a dilution plate, with the final starting concentration of the compounds being 10 μM, across 10 concentration gradient points. The compounds were then further diluted 50-fold into the kinase reaction buffer and incubated on a shaker for 20 minutes. Kinase was formulated with an enzyme reaction buffer. 2 μl kinase was added to each well of the reaction plate. 1 μl of the compound diluted in buffer was added to each well, and then the plate was sealed with a sealing membrane and centrifuged at 1000 g for 30 seconds, leaving it at room temperature for 10 minutes. Solutions of TGFβR1tide and ATP were prepared with the kinase reaction buffer, and 2 μL of the TGFβR1tide/ATP solution was added to the reaction plate. The plate was sealed with a sealing film and centrifuged at 1000 g for 30 seconds. It was allowed to react at room temperature for 60 minutes. Subsequently, 4 μL of ADP-Glo was transferred to a 384-well reaction plate and centrifuged at 1000 rpm/min for 1 minute, followed by incubation at 25° C. for 40 minutes. Then, 8 μL of Detection solution was transferred to the 384-well reaction plate and centrifuged at 1000 rpm/min for 1 minute, after which it was incubated at 25° C. for 40 minutes. The RLU (Relative Luminescence Unit) signal was read using a BMG microplate reader, which was used to characterize the degree of kinase activity.
3.1 The inhibition rate was calculated as follows: inhibition rate of compound (% inh)=100%−(compound−positive control)/(negative control−positive control)*100%.
The IC50 (half inhibition concentration) of a compound was obtained using the following non-linear fitting equation, wherein data analysis was performed using Graphpad 7.0 software.
X: log value of compound concentration; and Y: inhibition rate (% inhibition)

human TGFβR1, sequence (P36897 34-503): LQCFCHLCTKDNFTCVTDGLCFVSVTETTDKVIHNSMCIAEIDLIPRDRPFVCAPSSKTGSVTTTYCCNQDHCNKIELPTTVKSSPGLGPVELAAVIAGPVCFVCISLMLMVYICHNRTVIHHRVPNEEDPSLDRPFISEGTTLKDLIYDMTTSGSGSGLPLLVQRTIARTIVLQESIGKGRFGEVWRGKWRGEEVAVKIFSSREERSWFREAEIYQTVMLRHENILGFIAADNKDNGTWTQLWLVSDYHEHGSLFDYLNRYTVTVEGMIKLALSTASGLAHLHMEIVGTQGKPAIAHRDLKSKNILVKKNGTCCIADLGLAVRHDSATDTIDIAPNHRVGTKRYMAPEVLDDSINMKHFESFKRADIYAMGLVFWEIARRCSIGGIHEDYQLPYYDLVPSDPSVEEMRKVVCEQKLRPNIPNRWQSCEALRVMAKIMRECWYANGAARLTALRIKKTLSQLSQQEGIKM

IC50 [nM]	SMILES
7.4	Cc1cccc(-c2nc3n(c2-c2ccnc(-c4nc5c([nH]4)CN(C)C5)c2)CCC3)n1 [Compound 3, 5-methyl-2-(4-(2-(6-methylpyridin-2-yl)-6,7-dihydro-5H-pyrrolo[1,2-a]imidazol-3-yl)pyridin-2-yl)-1,4,5,6-tetrahydropyrrolo[3,4-d]imidazole]
5	Cc1cccc(-c2nn(Cc3ccncc3)cc2-c2ccnc(-c3nc4c([nH]3)CN(S(C)(=O)=O)C4)c2)n1 [Compound 55, 2-[4-(3-(6-Methylpyridin-2-yl)-1-(pyridin-4-ylmethyl)-1H-pyrazol-4-yl)pyridin-2-yl]-5-(methylsulfonyl)-1,4,5,6-tetrahydropyrrolo[3,4-d]imidazole]
3.8	Cc1cccc(-c2nc3n(c2-c2ccnc(-c4nc5c([nH]4)CN(C(=O)N4CCN(C)CC4)C5)c2)CCC3)n1 [Compound 4, (4-methylpiperazin-1-yl)(2-(4-(2-(6-methylpyridin-2-yl)-6,7-dihydro-5H-pyrrolo[1,2-a]imidazol-3-yl)pyridin-2-yl)-4,6-dihydropyrrolo[3,4-d]imidazol-5(1H)-yl)ketone]
23	Cc1cccc(-c2nc3n(c2-c2ccnc(-c4nc5c([nH]4)CNC5)c2)CCC3)n1 [Compound 2, 2-(4-(2-(6-methylpyridin-2-yl)-6,7-dihydro-5H-pyrrolo[1,2-a]imidazol-3-yl)pyridin-2-yl)-1,4,5,6-tetrahydropyrrolo[3,4-d]imidazole]
1.3	Cc1cccc(-c2nn3c(c2-c2ccnc(-c4nc5c([nH]4)CN(S(=O)(=O)C(C)C)C5)c2)CCC3)n1 [Compound 69, 5-(Isopropylsulfonyl)-2-(4-(2-(6-methylpyridin-2-yl)-5,6-dihydro-4H-pyrrolo[1,2-b]pyrazol-3-yl)pyridin-2-yl)-1,4,5,6-tetrahydropyrrolo[3,4-d]imidazole]
5.7	COC(=O)N1Cc2nc(-c3cc(-c4c(-c5cccc(C)n5)nc5n4CCC5)ccn3)[nH]c2C1 [Compound 30, Methyl 2-(4-(2-(6-Methylpyridin-2-yl)-6,7-dihydro-5H-pyrrolo[1,2-alimidazol-3-yl)pyridin-2-yl)-4,6-dihydropyrrolo[3,4-d]imidazol-5(1H)-carboxylate]
1.8	CCn1cc(-c2ccnc(-c3nc4c([nH]3)CN(C(=O)N(C)C)C4)c2)c(-c2cccc(C)n2)n1 [Compound 60, 2-(4-(1-Ethyl-3-(6-methylpyridin-2-yl)-1H-pyrazol-4-yl)pyridin-2-yl)-N,N-dimethyl-4,6-dihydropyrrolo[3,4-d]imidazol-5(1H)-carboxamide]
1.4	Cc1cccc(-c2nn(Cc3cccnc3)cc2-c2ccnc(-c3nc4c([nH]3)CN(S(C)(=O)=O)C4)c2)n1 [Compound 54, 2-[4-(3-(6-Methylpyridin-2-yl)-1-(pyridin-3-ylmethyl)-1H-pyrazol-4-yl)pyridin-2-yl]-5-(methylsulfonyl)-1,4,5,6-tetrahydropyrrolo[3,4-d]imidazole]
19	CNC(=O)N1Cc2nc(-c3cc(-c4c(-c5cccc(C)n5)nc5n4CCC5)ccn3)[nH]c2C1 [Compound 28]
1.7	Cc1cccc(-c2nn(C(C)C)cc2-c2ccnc(-c3nc4c([nH]3)CN(S(C)(=O)=O)C4)c2)n1 [Compound 46, 2-[4-(1-Isopropyl-3-(6-methylpyridin-2-yl)-1H-pyrazol-4-yl)pyridin-2-yl]-5-(methylsulfonyl)-1,4,5,6-tetrahydropyrrolo[3,4-d]imidazole]
8.1	CCS(=O)(=O)N1Cc2nc(-c3cc(-c4c(-c5cccc(C)n5)nn5c4CCC5)ccn3)[nH]c2C1 [Compound 68]
1.6	Cc1cccc(-c2nn(Cc3ccccc3)cc2-c2ccnc(-c3nc4c([nH]3)CN(S(C)(=O)=O)C4)c2)n1 [Compound 48, 2-[4-(1-Benzyl-3-(6-methylpyridin-2-yl)-1H-pyrazol-4-yl)pyridin-2-yl]-5-(methylsulfonyl)-1,4,5,6-tetrahydropyrrolo[3,4-d]imidazole]
13	Cc1cccc(-c2n[nH]cc2-c2ccnc(-c3nc4c([nH]3)CNCC4)c2)n1 [Compound 76]
